Reference: PubChem BioAssay AID248 (DTP/NCI, 2004)
Where “and” joins values, the source holds several entries; their conditions need not be identical. Equal entries are not always repeated. Toxic doses and inconclusive results are not listed. No stated cut-off is given here; in the data, active means T/C of 150% or more; inactive means T/C below 125%.

Test system: L1210 leukemia ip in BDF1 mice, survival T/C
Assay: NCI In Vivo Anticancer Drug Screen. Data for tumor model L1210 Leukemia (intraperitoneal) in B6D2F1 (BDF1) mice
Settings: endpoint: mean survival time, higher = longer survival
Method in brief: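 Tumor cells were implanted, animals were treated, and survival was followed. The result divides the treated measurement by the vehicle-control measurement.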

[1] = dose: 25.0 mg/kg/injection, schedule: Q01DX009 (ip), vehicle: saline with Tween-80
[2] = dose: 50.0 mg/kg/injection, schedule: Q01DX009 (ip), vehicle: saline with Tween-80
[3] = dose: 100.0 mg/kg/injection, schedule: Q01DX009 (ip), vehicle: saline with Tween-80
[4] = dose: 100.0 mg/kg/injection, schedule: Q04DX003 (ip), vehicle: saline
[5] = dose: 200.0 mg/kg/injection, schedule: Q04DX003 (ip), vehicle: saline
[6] = dose: 400.0 mg/kg/injection, schedule: Q04DX003 (ip), vehicle: saline
[7] = dose: 100.0 mg/kg/injection, schedule: Q04DX003 (ip), vehicle: saline with Tween-80
[8] = dose: 200.0 mg/kg/injection, schedule: Q01DX009 (ip), vehicle: saline with Tween-80
[9] = dose: 200.0 mg/kg/injection, schedule: Q04DX003 (ip), vehicle: saline with Tween-80
[10] = dose: 400.0 mg/kg/injection, schedule: Q04DX003 (ip), vehicle: saline with Tween-80
[11] = dose: 50.0 mg/kg/injection, schedule: Q01DX009 (ip), vehicle: saline
[12] = dose: 100.0 mg/kg/injection, schedule: Q01DX009 (ip), vehicle: saline
[13] = dose: 200.0 mg/kg/injection, schedule: Q01DX009 (ip), vehicle: saline

Measured: T/C

C/C(=C\c1ccc2ccccc2c1)[N+](=O)[O-]
inactive: dose: 75.0 mg/kg/injection, schedule: Q01DX001 (ip), vehicle: saline 108 % of control | dose: 150.0 mg/kg/injection, schedule: Q01DX001 (ip), vehicle: saline 100 % of control | dose: 300.0 mg/kg/injection, schedule: Q01DX001 (ip), vehicle: saline 105 % of control

CN(C)CCC=C1c2ccccc2-c2ccccc21
inactive: dose: 15.0 mg/kg/injection, schedule: Q01DX015 (ip), vehicle: carboxymethylcellulose (CMC) 88 % of control | [1] 105 % of control | dose: 30.0 mg/kg/injection, schedule: Q01DX015 (ip), vehicle: carboxymethylcellulose (CMC) 92 % of control | dose: 50.0 mg/kg/injection, schedule: Q01DX001 (ip), vehicle: carboxymethylcellulose (CMC) 93 % of control | [2] 96 % of control | dose: 60.0 mg/kg/injection, schedule: Q01DX015 (ip), vehicle: carboxymethylcellulose (CMC) 92 % of control | dose: 100.0 mg/kg/injection, schedule: Q01DX001 (ip), vehicle: carboxymethylcellulose (CMC) 104 % of control | [3] 111 % of control | [4] 115 % of control | dose: 120.0 mg/kg/injection, schedule: Q01DX015 (ip), vehicle: carboxymethylcellulose (CMC) 92 % of control | dose: 200.0 mg/kg/injection, schedule: Q01DX001 (ip), vehicle: carboxymethylcellulose (CMC) 98 % of control | dose: 400.0 mg/kg/injection, schedule: Q01DX001 (ip), vehicle: carboxymethylcellulose (CMC) 101 % of control

Cc1ccc(C(=O)/C=C\c2ccc(Cl)cc2Cl)cc1
inactive: dose: 100.0 mg/kg/injection, schedule: Q04DX003 (ip), vehicle: Klucel (hydroxypropylcellulose) (HPC) 92 % of control | dose: 200.0 mg/kg/injection, schedule: Q04DX003 (ip), vehicle: Klucel (hydroxypropylcellulose) (HPC) 100 % of control | dose: 400.0 mg/kg/injection, schedule: Q04DX003 (ip), vehicle: Klucel (hydroxypropylcellulose) (HPC) 92 % of control

Cc1nc(C)c2c(c1C)-c1ccccc1C2=O
inactive: dose: 50.0 mg/kg/injection, schedule: Q01DX009 (ip), vehicle: other 104 % of control | dose: 50.0 mg/kg/injection, schedule: Q01DX009 (ip), vehicle: saline + alcohol 108 % of control | dose: 100.0 mg/kg/injection, schedule: Q01DX009 (ip), vehicle: other 100 % of control | dose: 100.0 mg/kg/injection, schedule: Q01DX009 (ip), vehicle: saline + alcohol 106 % of control | [4] 102 % of control | dose: 200.0 mg/kg/injection, schedule: Q01DX009 (ip), vehicle: other 100 % of control | dose: 200.0 mg/kg/injection, schedule: Q01DX009 (ip), vehicle: saline + alcohol 108 % of control | [5] 101 % of control | dose: 400.0 mg/kg/injection, schedule: Q01DX009 (ip), vehicle: other 107 % of control | dose: 400.0 mg/kg/injection, schedule: Q01DX009 (ip), vehicle: saline + alcohol 98 % of control | [6] 107 % of control | dose: 500.0 mg/kg/injection, schedule: Q01DX009 (ip), vehicle: other 95 % of control

O=C(CC(O)(C(F)(F)Cl)C(F)(F)Cl)c1cccs1
inactive: dose: 50.0 mg/kg/injection, schedule: Q04DX003 (ip), vehicle: saline with Tween-80 101 % of control | [3] 108 % of control | [7] 101 % of control | [8] 114 % of control | [9] 98 % of control | dose: 400.0 mg/kg/injection, schedule: Q01DX009 (ip), vehicle: saline with Tween-80 98 % of control | [10] 98 % of control

NC(=O)c1cn[nH]c1N1CC[N+](CCCl)=N1
inactive: [11] 93 % of control | [12] 103 % of control | [4] 103 % of control | [13] 108 % of control | [5] 97 % of control

CC(C)C(C(=O)O)N(C)N=O (stereo unspecified)
inactive: dose: 50.0 mg/kg/injection, schedule: Q04DX003 (ip), vehicle: saline 94 % of control | dose: 100.0 mg/kg/injection, schedule: Q01DX001 (ip), vehicle: acetone 101 % of control | [4] 97 % of control | dose: 200.0 mg/kg/injection, schedule: Q01DX001 (ip), vehicle: acetone 103 % of control | [5] 94 % of control

COC(=O)C(CSCSC)NC(=O)/C=C/c1ccco1 (stereo unspecified)
inactive: [1] 107 % of control | [2] 107 % of control | [3] 102 % of control and 91 % of control | [7] 93 % of control | [9] 101 % of control | [10] 95 % of control

Cc1cc(I)c(C)s1
inactive: [7] 96 % of control | [9] 96 % of control | [10] 98 % of control

C=CCOP1(=O)OCC2OC(n3cnc4c(N)ncnc43)C(O)C2O1 (stereo unspecified)
inactive: [11] 98 % of control | dose: 100.0 mg/kg/injection, schedule: Q01DX005 (ip), vehicle: saline 100 % of control | [12] 89 % of control | dose: 200.0 mg/kg/injection, schedule: Q01DX005 (ip), vehicle: saline 92 % of control | [13] 97 % of control

Cn1c(-c2ccccc2)nc2c(N)ncnc21
inactive: dose: 25.0 mg/kg/injection, schedule: Q01DX001 (ip), vehicle: saline with Tween-80 95 % of control | dose: 50.0 mg/kg/injection, schedule: Q01DX001 (ip), vehicle: saline with Tween-80 90 % of control | dose: 100.0 mg/kg/injection, schedule: Q01DX001 (ip), vehicle: saline with Tween-80 90 % of control

C1CCC2(CC1)OOC1(CCCCC1)OOC1(CCCC1)OO2
inactive: [2] 104 % of control | [3] 96 % of control | [8] 110 % of control

CCOC(=O)C1C(=O)C(=O)N2CCCC12 (stereo unspecified)
inactive: [4] 107 % of control | [5] 96 % of control | [6] 98 % of control

O/N=C\c1cc2c3c(c1)CCCN3CCC2
inactive: dose: 100.0 mg/kg/injection, schedule: Q01DX009 (ip), vehicle: Klucel (hydroxypropylcellulose) (HPC) 95 % of control | dose: 200.0 mg/kg/injection, schedule: Q01DX009 (ip), vehicle: Klucel (hydroxypropylcellulose) (HPC) 91 % of control | dose: 400.0 mg/kg/injection, schedule: Q01DX009 (ip), vehicle: Klucel (hydroxypropylcellulose) (HPC) 86 % of control

COc1ccccc1NC(=O)NCc1cccc2ccccc12
inactive: dose: 100.0 mg/kg/injection, schedule: Q04DX002 (ip), vehicle: Klucel (hydroxypropylcellulose) (HPC) 107 % of control | dose: 200.0 mg/kg/injection, schedule: Q04DX002 (ip), vehicle: Klucel (hydroxypropylcellulose) (HPC) 104 % of control | dose: 400.0 mg/kg/injection, schedule: Q04DX002 (ip), vehicle: Klucel (hydroxypropylcellulose) (HPC) 100 % of control
